Results taken from patent US20260008862A1, “Bispecific Anti-BCMA x Anti-CD3 Antibodies and Uses Thereof” (Regeneron Pharmaceuticals, Inc., priority 2018, published 2026).

How the values were obtained:
[1] = test system: Jurkat/NFATLuc.3C7 cells + NCI-H929 cells; assay: Jurkat/NFATLuc reporter bioassay with NCI-H929 cells; type: cell-based; details: highest RLU / lowest RLU
Procedure: Activity of the anti-BCMA×anti-CD3 bispecific antibodies were assessed in a Jurkat/NFATLuc reporter bioassay utilizing several cell lines with varying levels of BCMA surface expression. The Jurkat cells were engineered to express an NFAT-luciferase reporter (Jurkat/NFATLuc.3C7), and 50,000 Jurkat reporter cells were combined with 50,000 BCMA positive (Daudi, MM1-S, NCI-H929, OPM-2, RPMI-8226, MOLP-8, or Raji) or BCMA negative (HEK293) cells in Thermo Nunclon delta 96 well white microwell plates (Thermo Scientific, Cat #136102) in 50 ul of assay media (RPMI media with 10% FBS and 1% P/S/G). Three-fold serial dilutions of the BCMA×CD3 bispecific antibodies (mAb25441 D or mAb25442D), or a bivalent anti-BCMA antibody (mAb21581) were immediately added in 50 μL of assay buffer. The plates were gently agitated and incubated in a 37° C., 5% CO2 incubator for 4-6 hours. NFAT-Luciferase activity was determined using Promega One-Glo (Cat #E6130) and a Perkin Elmer Envision plate reader. RLU were plotted in GraphPad Prism using a four-parameter logistic equation over a 12-point response curve to calculate EC50 values. […] The signal to noise (S:N) is determined by taking the ratio of the highest RLU on the curve to the lowest.

[2] = test system: BCMA-expressing NCI-H929 tumors; assay: NCI-H929 + PBMC xenogenic tumor model, immediate treatment, dose response (Example 11); type: in vivo, mouse
Procedure: To determine the in vivo efficacy of anti-BCMA×anti-CD3 bispecific antibodies (Abs), a xenogenic tumor study was performed. Immunodeficient NOD.Cg-Prkdc^scidIl2rg^tm1Wji/SzJ (NSG) mice were subcutaneously implanted with a mixture of 10×10^6 BCMA-expressing NCI-H929 human multiple myeloma tumor cells and 0.5×10^6 human peripheral blood mononuclear cells (PBMC) isolated from a normal, healthy donor. […] The mice were administered these Abs twice per week for a total of seven doses, and tumor growth was assessed over 60 days. While BCMA^+ NCI-H929 tumors grew similarly in the vehicle- and CD3-binding control-treated mice, both anti-BCMA×anti-CD3 Abs that were tested prevented the growth of tumors in a dose-dependent manner in vivo.
Implantation and measurement of xenogenic tumors: NSG mice were subcutaneously implanted with a mixture of 10×10^6 BCMA-expressing NCI-H929 multiple myeloma cells and 0.5×10^6 PBMC derived from a normal, healthy donor. […] The mice were administered Abs twice per week for a total of seven doses. Tumor growth was measured with calipers twice per week for the duration of the experiment.
Calculation of xenogenic tumor growth and inhibition: In order to determine tumor volume by external caliper, the greatest longitudinal diameter (length in mm) and the greatest transverse diameter (width in mm) were determined. Tumor volumes based on caliper measurements were calculated by the formula: Volume (mm^3)=(length×width^2)/2.

[3] = molecular target: T1, surface BCMA on MM cell lines (Homo sapiens, UniProt Q02223); assay: FACS surface BCMA after overnight incubation, MM cell lines overall; type: cell-based; details: 66.7 or 667 nM
T1 construct: human cell lines which express endogenous BCMA (e.g., NCI-H929, MOLP-8 or OMP-2); endogenous in cells; host or cells: multiple myeloma cell lines H929, Molp8, U266, MM1.S
T1 sequence (Q02223 1-184): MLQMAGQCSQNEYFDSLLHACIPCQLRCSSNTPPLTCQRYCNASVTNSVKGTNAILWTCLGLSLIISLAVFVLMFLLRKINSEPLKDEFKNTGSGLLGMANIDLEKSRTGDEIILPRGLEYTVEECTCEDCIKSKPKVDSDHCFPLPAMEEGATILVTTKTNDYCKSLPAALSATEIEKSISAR
Procedure: Flow cytometric analysis was utilized to determine the impact of overnight incubation of multiple myeloma cell lines with anti-BCMA antibodies on the level of surface BCMA. […] After 18 hours, wells were washed with cold FACS wash (PBS+1% filtered FBS) and resuspended in 667 nM of the same anti-BCMA antibody in cold stain buffer (Miltenyi 130-091-221) for 30 minutes on ice. After incubation, the cells were washed twice with cold FACS wash (PBS+1% filtered FBS) and bound antibody was detected by incubating with the appropriate anti-human secondary antibody (anti-hIgG or anti-HIS) on ice for an additional 30-45 minutes. After incubation, cells were washed, re-suspended in 200 μL cold PBS containing 1% filtered FBS and analyzed by flow cytometry on a BD FACS Canto II. Fold increase in staining was calculated by dividing the MFI of stained cells previously incubated overnight in BCMA abs or DAPT by the MFI of stained cells that were incubated overnight in media only.

Substance	Average Tumor Size (mm3) ± SEM on Day 7 ([2]; 0.04 mg/kg) [mm3]	Average Tumor Size (mm3) ± SEM on Day 12 ([2]; 0.04 mg/kg) [mm3]	Average Tumor Size (mm3) ± SEM on Day 19 ([2]; 0.04 mg/kg) [mm3]	Average Tumor Size (mm3) ± SEM on Day 22 ([2]; 0.04 mg/kg) [mm3]	Average Tumor Size (mm3) ± SEM on Day 26 ([2]; 0.04 mg/kg) [mm3]	Average Tumor Size (mm3) ± SEM on Day 29 ([2]; 0.04 mg/kg) [mm3]	Average Tumor Size (mm3) ± SEM on Day 4 ([2]; 0.4 mg/kg) [mm3]	Average Tumor Size (mm3) ± SEM on Day 15 ([2]; 0.4 mg/kg) [mm3]	Average Tumor Size (mm3) ± SEM on Day 19 ([2]; 0.4 mg/kg) [mm3]	Average Tumor Size (mm3) ± SEM on Day 22 ([2]; 0.4 mg/kg) [mm3]	Average Tumor Size (mm3) ± SEM on Day 26 ([2]; 0.4 mg/kg) [mm3]	Average Tumor Size (mm3) ± SEM on Day 29 ([2]; 0.4 mg/kg) [mm3]	Average Tumor Size (mm3) ± SEM on Day 34 ([2]; 0.4 mg/kg) [mm3]	Average Tumor Size (mm3) ± SEM on Day 39 ([2]; 0.4 mg/kg) [mm3]	Average Tumor Size (mm3) ± SEM on Day 42 ([2]; 0.4 mg/kg) [mm3]	Average Tumor Size (mm3) ± SEM on Day 46 ([2]; 0.4 mg/kg) [mm3]	Average Tumor Size (mm3) ± SEM on Day 55 ([2]; 0.4 mg/kg) [mm3]	Average Tumor Size (mm3) ± SEM on Day 60 ([2]; 0.4 mg/kg) [mm3]	Average Tumor Size (mm3) ± SEM on Day 4 ([2]; 4 mg/kg) [mm3]	Average Tumor Size (mm3) ± SEM on Day 12 ([2]; 4 mg/kg) [mm3]	further results
REGN5458: anti-BCMA×anti-CD3 bispecific antibody: BCMA HCVR of mAb21581 (SEQ 66), CD3 HCVR of mAb7221G (SEQ 90), common LCVR SEQ 82	30.8 ± 5.5	71.5 ± 22.4	413.7 ± 162.7	669.4 ± 248.5	1167.0 ± 431.7	1781.8 ± 620.7	31.9 ± 2.0	0 ± 0	0 ± 0	0 ± 0	0 ± 0	0 ± 0	0 ± 0	0 ± 0	0 ± 0	0 ± 0	0 ± 0	0 ± 0	18.0 ± 1.2	0 ± 0	S:N [1]: 39; Average Tumor Size (mm3) ± SEM on Day 15 ([2]; 0.04 mg/kg): 133.4 ± 50.9 mm3; Average Tumor Size (mm3) ± SEM on Day 7 ([2]; 0.4 mg/kg): 11.3 ± 3.0 mm3; Average Tumor Size (mm3) ± SEM on Day 15 ([2]; 4 mg/kg): 0 ± 0 mm3; Average Tumor Size (mm3) ± SEM on Day 19 ([2]; 4 mg/kg): 0 ± 0 mm3; Average Tumor Size (mm3) ± SEM on Day 22 ([2]; 4 mg/kg): 0 ± 0 mm3; Average Tumor Size (mm3) ± SEM on Day 26 ([2]; 4 mg/kg): 0 ± 0 mm3; Average Tumor Size (mm3) ± SEM on Day 29 ([2]; 4 mg/kg): 0 ± 0 mm3; Average Tumor Size (mm3) ± SEM on Day 34 ([2]; 4 mg/kg): 0 ± 0 mm3; Average Tumor Size (mm3) ± SEM on Day 39 ([2]; 4 mg/kg): 0 ± 0 mm3; Average Tumor Size (mm3) ± SEM on Day 42 ([2]; 4 mg/kg): 0 ± 0 mm3; Average Tumor Size (mm3) ± SEM on Day 46 ([2]; 4 mg/kg): 0 ± 0 mm3; Average Tumor Size (mm3) ± SEM on Day 55 ([2]; 4 mg/kg): 0 ± 0 mm3; Average Tumor Size (mm3) ± SEM on Day 60 ([2]; 4 mg/kg): 0 ± 0 mm3; surface BCMA after overnight incubation (in words) [3]: increased levels of surface BCMA
REGN5459: anti-BCMA×anti-CD3 bispecific antibody: BCMA HCVR of mAb21581 (SEQ 66), CD3 HCVR of mAb7221G20 (SEQ 98), common LCVR SEQ 82	8.4 ± 4.0	0 ± 0	23.1 ± 23.1	69.5 ± 69.5	156.7 ± 156.7	226.6 ± 226.6	19.6 ± 4.4	0 ± 0	0 ± 0	0 ± 0	0 ± 0	0 ± 0	0 ± 0	0 ± 0	0 ± 0	0 ± 0	0 ± 0	0 ± 0	21.8 ± 3.4	1.7 ± 1.7	Average Tumor Size (mm3) ± SEM on Day 4 ([2]; 0.04 mg/kg): 33.0 ± 4.4 mm3; Average Tumor Size (mm3) ± SEM on Day 12 ([2]; 0.4 mg/kg): 0 ± 0 mm3; Average Tumor Size (mm3) ± SEM on Day 7 ([2]; 4 mg/kg): 8.0 ± 4.3 mm3; Average Tumor Size (mm3) ± SEM on Day 15 ([2]; 4 mg/kg): 0 ± 0 mm3; Average Tumor Size (mm3) ± SEM on Day 19 ([2]; 4 mg/kg): 0 ± 0 mm3; Average Tumor Size (mm3) ± SEM on Day 22 ([2]; 4 mg/kg): 0 ± 0 mm3; Average Tumor Size (mm3) ± SEM on Day 26 ([2]; 4 mg/kg): 0 ± 0 mm3; Average Tumor Size (mm3) ± SEM on Day 29 ([2]; 4 mg/kg): 0 ± 0 mm3; Average Tumor Size (mm3) ± SEM on Day 34 ([2]; 4 mg/kg): 0 ± 0 mm3; Average Tumor Size (mm3) ± SEM on Day 39 ([2]; 4 mg/kg): 0 ± 0 mm3; Average Tumor Size (mm3) ± SEM on Day 42 ([2]; 4 mg/kg): 0 ± 0 mm3; Average Tumor Size (mm3) ± SEM on Day 46 ([2]; 4 mg/kg): 0 ± 0 mm3; Average Tumor Size (mm3) ± SEM on Day 55 ([2]; 4 mg/kg): 0 ± 0 mm3; Average Tumor Size (mm3) ± SEM on Day 60 ([2]; 4 mg/kg): 0 ± 0 mm3
